Counter-ions that a name gives are not always drawn.
molecular target: T1, human TRPC6 (Homo sapiens, UniProt Q9Y210); assay: TRPC6 calcium flux assay (FLIPR, OAG-stimulated calcium influx); assay type: cell-based; details: HEK293 cells stably transfected with human TRPC6, read-out: hTRPC6 Potency
T1 construct: expressed in transfected cells
T1 sequence (Q9Y210 1-931): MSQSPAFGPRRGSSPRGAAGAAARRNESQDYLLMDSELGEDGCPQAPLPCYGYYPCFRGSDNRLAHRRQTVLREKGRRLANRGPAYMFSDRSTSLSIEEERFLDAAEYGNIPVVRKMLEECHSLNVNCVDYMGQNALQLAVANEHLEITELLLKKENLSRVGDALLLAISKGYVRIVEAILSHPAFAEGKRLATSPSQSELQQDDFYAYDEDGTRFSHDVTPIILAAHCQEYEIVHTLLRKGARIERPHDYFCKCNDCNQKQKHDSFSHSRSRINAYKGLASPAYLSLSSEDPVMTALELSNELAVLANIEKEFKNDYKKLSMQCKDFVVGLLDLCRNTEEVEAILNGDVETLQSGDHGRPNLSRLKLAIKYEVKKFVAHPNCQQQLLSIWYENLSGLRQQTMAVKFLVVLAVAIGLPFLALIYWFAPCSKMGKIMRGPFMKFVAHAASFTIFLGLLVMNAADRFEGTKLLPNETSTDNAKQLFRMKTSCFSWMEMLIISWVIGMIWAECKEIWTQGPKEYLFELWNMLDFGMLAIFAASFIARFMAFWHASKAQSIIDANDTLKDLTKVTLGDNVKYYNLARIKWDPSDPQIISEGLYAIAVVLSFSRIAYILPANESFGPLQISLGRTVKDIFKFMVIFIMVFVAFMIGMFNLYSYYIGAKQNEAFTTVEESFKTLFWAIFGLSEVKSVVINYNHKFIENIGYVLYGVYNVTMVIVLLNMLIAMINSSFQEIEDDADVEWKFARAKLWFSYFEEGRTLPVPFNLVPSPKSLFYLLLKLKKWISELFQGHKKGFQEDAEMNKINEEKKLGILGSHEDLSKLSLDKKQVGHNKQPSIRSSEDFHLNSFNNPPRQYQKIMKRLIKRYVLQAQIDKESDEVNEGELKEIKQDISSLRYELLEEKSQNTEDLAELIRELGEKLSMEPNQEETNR
How it was run: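 HEK293 cells stably expressing human TRPC6, loaded with calcium dye 90–120 min at RT, then given compound for 25 min before OAG (50 uM final, 0.5% DMSO) in HEPES buffer pH 7.2 with 2 mM CaCl2. Background-subtracted FLIPR peak over 180 s normalized to OAG vs buffer; IC50 from dose plot.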

IC50	SMILES
0.906 nM	N#Cc1ccc(Cn2c(N3CC[C@H](F)[C@H](N)C3)nc3cc(F)c(F)cc32)nc1 [Example 83, 6-((2-((3R,4S)-3-amino-4-fluoropiperidin-1-yl)-5,6-difluoro-1H-benzo[d]imidazol-1-yl)methyl)nicotinonitrile hydrochloride]
1.27 nM	N#Cc1ccc(Cn2c(N3CCC(F)(F)[C@H](N)C3)nc3cc(F)c(F)cc32)nc1 [Example 84, (R)-6-((2-(3-amino-4,4-difluoropiperidin-1-yl)-5,6-difluoro-1H-benzo[d]imidazol-1-yl)methyl)nicotinonitrile hydrochloride]
7.55 nM	N[C@@H]1CN(c2nc3ccccc3n2Cc2ccc(Cl)cn2)CCC1(F)F [Example 85, (R)-1-(1-((5-chloropyridin-2-yl)methyl)-1H-benzo[d]imidazol-2-yl)-4,4-difluoropiperidin-3-amine hydrochloride]
1.37 nM	N[C@@H]1CN(c2nc3ccccc3n2Cc2ccc(Cl)cn2)CC[C@@H]1F [Example 86, (3R,4S)-1-(1-((5-chloropyridin-2-yl)methyl)-1H-benzo[d]imidazol-2-yl)-4-fluoropiperidin-3-amine hydrochloride]
0.931 nM	N#Cc1ccc(Cn2c(N3CCC(F)(F)[C@H](N)C3)nc3c(F)cc(F)cc32)nc1 [Example 87, (R)-6-((2-(3-amino-4,4-difluoropiperidin-1-yl)-4,6-difluoro-1H-benzo[d]imidazol-1-yl)methyl)nicotinonitrile hydrochloride]
0.643 nM	N#Cc1ccc(Cn2c(N3CCC(F)(F)[C@H](N)C3)nc3ccc(F)cc32)nc1 [Example 88, (R)-6-((2-(3-amino-4,4-difluoropiperidin-1-yl)-6-fluoro-1H-benzo[d]imidazol-1-yl)methyl)nicotinonitrile]
368 nM	N#Cc1ccc(Cn2c(N3CCC(F)(F)[C@H](N)C3)nc3c(C(F)(F)F)cccc32)nc1 [Example 89, (R)-6-((2-(3-amino-4,4-difluoropiperidin-1-yl)-4-(trifluoromethyl)-1H-benzo[d]imidazol-1-yl)methyl)nicotinonitrile]
68 nM	N#Cc1ccc(Cn2c(N3CC[C@@H](F)[C@H](N)C3)nc3c(C(F)(F)F)cccc32)nc1 [Example 90, 6-((2-((3R,4R)-3-amino-4-fluoropiperidin-1-yl)-4-(trifluoromethyl)-1H-benzo[d]imidazol-1-yl)methyl)nicotinonitrile]
32.9 nM	N#Cc1ccc(Cn2c(N3CC[C@H](F)[C@H](N)C3)nc3c(C(F)(F)F)cccc32)nc1 [Example 91, 6-((2-((3R,4S)-3-amino-4-fluoropiperidin-1-yl)-4-(trifluoromethyl)-1H-benzo[d]imidazol-1-yl)methyl)nicotinonitrile]
43.8 nM	N#Cc1ccc(Cn2c(N3CC[C@@H](F)[C@H](N)C3)nc3cc(Cl)cnc32)nc1 [Example 92, 6-((2-((3R,4R)-3-amino-4-fluoropiperidin-1-yl)-6-chloro-3H-imidazo[4,5-b]pyridin-3-yl)methyl)nicotinonitrile]
6.85 nM	N#Cc1ccc(Cn2c(N3CC[C@@H](F)[C@H](N)C3)nc3ncc(Cl)cc32)nc1 [Example 93, 6-((2-((3R,4R)-3-amino-4-fluoropiperidin-1-yl)-6-chloro-1H-imidazo[4,5-b]pyridin-1-yl)methyl)nicotinonitrile]
615 nM	CC(C)(C)NC(=O)c1ccc(Cn2c(N3CC[C@@H](F)[C@H](N)C3)nc3ncc(Cl)cc32)nc1 [Example 94, 6-((2-((3R,4R)-3-amino-4-fluoropiperidin-1-yl)-6-chloro-1H-imidazo[4,5-b]pyridin-1-yl)methyl)-N-(tert-butyl)nicotinamide]
> 3750 nM	N#Cc1ccc(Cn2c(N3CC[C@@H](O)[C@H](N)C3)nc3ccccc32)nc1 [Example 95, 6-((2-((3R,4R)-3-amino-4-hydroxypiperidin-1-yl)-1H-benzo[d]imidazol-1-yl)methyl)nicotinonitrile]
134 nM	N#Cc1ccc(Cn2c(N3CC[C@H](O)[C@@H](N)C3)nc3ccccc32)nc1 [Example 96, 6-((2-((3S,4S)-3-amino-4-hydroxypiperidin-1-yl)-1H-benzo[d]imidazol-1-yl)methyl)nicotinonitrile]
> 3750 nM	N#Cc1ccc(Cn2c(N3CCC4(CNC4)C3)nc3ccccc32)nc1 [Example 97, 6-((2-(2,6-diazaspiro[3.4]octan-6-yl)-1H-benzo[d]imidazol-1-yl)methyl)nicotinonitrile]
> 3750 nM	N#Cc1ccc(Cn2c(N3C[C@@H]4OCCN[C@@H]4C3)nc3ccccc32)nc1 [Example 98, 6-((2-((4aR,7aS)-hexahydropyrrolo[3,4-b][1,4]oxazin-6(2H)-yl)-1H-benzo[d]imidazol-1-yl)methyl)nicotinonitrile hydrochloride]
> 3750 nM	N#Cc1ccc(Cn2c(N3C[C@@H]4NCCO[C@@H]4C3)nc3ccccc32)nc1 [Example 99, 6-((2-((4aS,7aR)-hexahydropyrrolo[3,4-b][1,4]oxazin-6(2H)-yl)-1H-benzo[d]imidazol-1-yl)methyl)nicotinonitrile hydrochloride]
60 nM	N#Cc1ccc(Cn2c(N3C[C@H]4NCCO[C@@H]4C3)nc3ccccc32)nc1 [Example 100, 6-((2-((4aR,7aR)-hexahydropyrrolo[3,4-b][1,4]oxazin-6(2H)-yl)-1H-benzo[d]imidazol-1-yl)methyl)nicotinonitrile]
> 3750 nM	N#Cc1ccc(Cn2c(N3C[C@@H]4NCCO[C@H]4C3)nc3ccccc32)nc1 [Example 101, 6-((2-((4aS,7aS)-hexahydropyrrolo[3,4-b][1,4]oxazin-6(2H)-yl)-1H-benzo[d]imidazol-1-yl)methyl)nicotinonitrile]
> 3750 nM	N#Cc1ccc(Cn2c(N3CCC[C@@](N)(C(N)=O)C3)nc3ccccc32)nc1 [Example 102, (S)-3-amino-1-(1-((5-cyanopyridin-2-yl)methyl)-1H-benzo[d]imidazol-2-yl)piperidine-3-carboxamide]
> 3750 nM	N#Cc1ccc(Cn2c(N3CCC[C@](N)(C(N)=O)C3)nc3ccccc32)nc1 [Example 103, (R)-3-amino-1-(1-((5-cyanopyridin-2-yl)methyl)-1H-benzo[d]imidazol-2-yl)piperidine-3-carboxamide]
61.8 nM	N#Cc1ccc(Cn2c(N3CCC[C@@](N)(CO)C3)nc3ccccc32)nc1 [Example 104, (S)-6-((2-(3-amino-3-(hydroxymethyl)piperidin-1-yl)-1H-benzo[d]imidazol-1-yl)methyl)nicotinonitrile]
2480 nM	N#Cc1ccc(Cn2c(N3CCC[C@](N)(CO)C3)nc3ccccc32)nc1 [Example 105, (R)-6-((2-(3-amino-3-(hydroxymethyl)piperidin-1-yl)-1H-benzo[d]imidazol-1-yl)methyl)nicotinonitrile]
0.45 nM	N#Cc1ccc(Cn2c(N3CC[C@H](F)[C@H](N)C3)nc3ccc(C(F)(F)F)cc32)nc1 [Example 106, 6-((2-((3R,4S)-3-amino-4-fluoro-1-piperidinyl)-6-(trifluoromethyl)-1H-benzimidazol-1-yl)methyl)-3-pyridinecarbonitrile]
7.88 nM	N#Cc1ccc(Cn2c(N3CC[C@H](F)[C@H](N)C3)nc3cc(C(F)(F)F)ccc32)nc1 [Example 107, 6-((2-((3R,4S)-3-amino-4-fluoro-1-piperidinyl)-5-(trifluoromethyl)-1H-benzimidazol-1-yl)methyl)-3-pyridinecarbonitrile]
0.433 nM	N#Cc1ccc(Cn2c(N3CCC(F)(F)[C@H](N)C3)nc3ccc(C(F)(F)F)cc32)nc1 [Example 108, 6-((2-((3R)-3-amino-4,4-difluoro-1-piperidinyl)-6-(trifluoromethyl)-1H-benzimidazol-1-yl)methyl)-3-pyridinecarbonitrile]
43.8 nM	N#Cc1ccc(Cn2c(N3CCC(F)(F)[C@H](N)C3)nc3cc(C(F)(F)F)ccc32)nc1 [Example 109, 6-((2-((3R)-3-amino-4,4-difluoro-1-piperidinyl)-5-(trifluoromethyl)-1H-benzimidazol-1-yl)methyl)-3-pyridinecarbonitrile]
1.23 nM	Cc1ccc2c(c1)nc(N1CC[C@@H](F)[C@H](N)C1)n2Cc1ccc(C#N)cn1 [Example 110, 6-((2-((3R,4R)-3-amino-4-fluoro-1-piperidinyl)-5-methyl-1H-benzimidazol-1-yl)methyl)-3-pyridinecarbonitrile]
0.787 nM	Cc1ccc2nc(N3CC[C@@H](F)[C@H](N)C3)n(Cc3ccc(C#N)cn3)c2c1 [Example 111, 6-((2-((3R,4R)-3-amino-4-fluoro-1-piperidinyl)-6-methyl-1H-benzimidazol-1-yl)methyl)-3-pyridinecarbonitrile]

— patent US11332459B2 (TEIJIN PHARMA LIMITED, priority 2017, dated 2022)
